In PubChem BioAssay (NCI):
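Following 48 hours of exposure in 96-well plates, responses at five concentrations were used to interpolate endpoints linearly. TGI marks complete inhibition of growth.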

How the values were obtained:
Experiment in all cases: growth of human tumour cells (NCI), 48 h
786-0 renal = system: 786-0 renal
BT-549 breast = system: BT-549 breast
HCC-2998 colon = system: HCC-2998 colon
KM12 colon = system: KM12 colon
MDA-N = system: MDA-N
NCI/ADR-RES ovarian = system: NCI/ADR-RES ovarian
OVCAR-3 ovarian = system: OVCAR-3 ovarian
OVCAR-5 ovarian = system: OVCAR-5 ovarian
SK-MEL-5 melanoma = system: SK-MEL-5 melanoma
TK-10 renal = system: TK-10 renal
U251 CNS = system: U251 CNS

Structure (SMILES) | TGI (786-0 renal) [µM] | TGI (BT-549 breast) [µM] | TGI (HCC-2998 colon) [µM] | TGI (KM12 colon) [µM] | TGI (MDA-N) [µM] | TGI (NCI/ADR-RES ovarian) [µM] | TGI (OVCAR-3 ovarian) [µM] | TGI (OVCAR-5 ovarian) [µM] | TGI (SK-MEL-5 melanoma) [µM] | TGI (TK-10 renal) [µM] | TGI (U251 CNS) [µM]
OC1CSc2nc3ccccc3n2C1 (stereo not given) | > 100 | > 100 | > 100 | > 100 | > 100 | > 100 | > 100 | > 100 | > 100 | > 100 | > 100
Cc1cnc2sn(-c3ccc(Br)cc3)c(=O)c2c1 | > 100 | > 100 | > 100 | > 100 | > 100 | > 100 | 62.7 | > 100 | > 100 | > 100 | > 100
c1ccc([I+]c2ccccc2)cc1 | > 100 | > 100 | > 100 | > 100 | > 100 | > 100 | > 100 | > 100 | > 100 | > 100 | > 100
CC(C)N(C(C)C)S(=O)(=O)C[C@]12CC[C@H](CC13OCC(CS(=O)(=O)c1ccccc1)O3)C2(C)C (stereo not given in full) | > 100 | > 100 | > 100 | > 100 | > 100 | > 100 | > 70.8 | > 100 | > 100 | 98.7 | > 100
O=C1CC(=O)NC(=NNS(=O)(=O)c2ccc(Cl)cc2)N1 | > 100 | > 100 | > 100 | > 100 | > 100 | > 100 | > 100 | > 100 | > 100 | > 100 | > 100
CCCCCCCCCCCCCCCCCCOCC(O)COP(=O)(O)OCC1OC(n2ccc(N)nc2=O)C(O)C1O (stereo not given) | 26.5 | – | > 100 | 41 | > 100 | > 100 | > 100 | > 100 | > 100 | 51.1 | 30.2
CCO/C=N/C1=C(C#N)SC2=N/C(=C\c3ccccc3)C(=O)N21 | > 100 | > 100 | > 100 | > 100 | > 100 | > 100 | > 100 | > 100 | > 100 | > 100 | > 100
CCOC(=O)/C=C(/C)Nc1nc2c(c(C(=O)OC)c1C#N)CCCC2 | > 100 | > 100 | > 100 | > 100 | > 100 | > 100 | – | > 100 | > 100 | > 100 | > 100
CNc1nc(C(N)=O)c(N)s1 | > 100 | > 100 | – | > 100 | > 100 | > 100 | > 100 | > 100 | > 100 | > 100 | > 100
Cc1cccc(N/C(Sc2ccccc2)=C(/C(Cl)=C(Cl)Cl)[N+](=O)[O-])c1 | 32.9 | 41.8 | > 100 | 48.6 | 45.8 | 39.1 | 21.6 | 40.8 | – | – | 31.9
